This passage reports MMC99 results from patent US8815812B2, “Synthetic arginine substituted peptides and their use” (Inger Mattsby-Baltzer, priority 2007, dated 2014).

Holding throughout (test): Antimicrobial assay (MMC99) in 1% Bactopeptone
Assay type in all cases: cell-based
What all share (conditions): 99% reduction of the inoculum

One assay relates to C. albicans. As to the method: (§1) [NT] […] Washed cells were suspended in 1% Bactopeptone (BP) (Difco, USA). The concentration of bacterial or fungal cells was spectrophotometrically adjusted. Peptides serially diluted in BP by twofold steps were added in duplicate or triplicate to the wells of a microtiterplate (200 μl per well). The bacterial or yeast cell solutions were added in 10 μl volumes to give a final concentration of approximately 2×10^5 cells per ml. The concentration of the stock solution was always checked by viable counts. The microplate was incubated at 37° C. in a humid chamber for 2 h unless otherwise stated. Five μl were taken from each well and added as a drop onto a blood agar plate and incubated over night at 37° C. The concentration of lactoferrin or peptide causing a 99% reduction of the inoculum was defined as the MMC99.

In the next assay the test system is E. coli. As to the method: as §1
The subject of a further assay is S. aureus. As to the method: as §1

Where no end group is shown, it is not given here.

Take “GRRRRSVQWCAVSQPEATKCFQWQRNMRKVR (cysteine pairing not given here) [HLBD31]”: the MMC99 in the assay on C. albicans (2 h) was 25 µg/mL; with C. albicans (24 h), 38 µg/mL; in the assay on E. coli (2 h), over 100 µg/mL; in the assay on E. coli (24 h), 50 µg/mL; with S. aureus (2 h) it was 100 µg/mL; in the assay on S. aureus (24 h) it was 100 µg/mL.
